Test results reported in ChEMBL document CHEMBL3046576, “Rational exploration of new pyridinium-based HSP90 inhibitors tailored to thiamine structure” (Med Chem Res, 2012).
Calls of active or inactive are those of the source. The calls are words filed in the database; no cut-off is given here.

Assays:
[1] = molecular target: T1, Heat shock protein HSP 90-alpha (Homo sapiens, UniProt P07900); test: Inhibition of recombinant Homo sapiens (human) Hsp90 alpha ATPase activity assessed as inorganic phosphate release at 10 uM by malachite green colorimetric method
[2] = molecular target: T1, Heat shock protein HSP 90-alpha; test: Inhibition of recombinant Homo sapiens (human) Hsp90 alpha ATPase activity assessed as inorganic phosphate release by malachite green colorimetric method

inhibition [1]	IC50 [2] [µM]	Structure (SMILES)
3%	–	NS(=O)(=O)c1ccc(NC(=O)C[n+]2cccc(C(=O)Nc3ccc(Cl)cc3)c2)cc1
48%	17.3	Cc1ccc(NC(=O)C[n+]2cccc(C(=O)Nc3ccc(Cl)cc3)c2)cc1
20%	–	COc1ccc(NC(=O)C[n+]2cccc(C(N)=O)c2)cc1
8%	–	Cc1ccccc1NC(=O)C[n+]1cccc(C(N)=O)c1
24%	–	O=C(C[n+]1cccc(C(=O)Nc2ccc(Cl)cc2)c1)Nc1ccc([N+](=O)[O-])cc1
23%	–	C=CCNC(=O)c1ccc[n+](CC(=O)Nc2ccc(C)cc2)c1
2%	–	COc1ccc(NC(=O)C[n+]2cccc(C(=O)Nc3ccc(Cl)cc3)c2)cc1
3%	–	CSc1ccc(NC(=O)c2ccc[n+](CC(=O)Nc3ccc([N+](=O)[O-])cc3)c2)cc1
16%	–	Cc1ccc(NC(=O)C[n+]2cccc(C(=O)Nc3cccc(C)c3)c2)cc1
12%	–	Cc1cccc(NC(=O)C[n+]2ccccc2)c1
8%	–	NS(=O)(=O)c1ccc(NC(=O)C[n+]2cccc(C(=O)Nc3ccc([N+](=O)[O-])cc3)c2)cc1
23%	–	COc1ccc(NC(=O)c2ccc[n+](CC(=O)Nc3ccc(S(N)(=O)=O)cc3)c2)cc1
inactive	–	C=CCNC(=O)C[n+]1cccc(C(N)=O)c1
inactive	–	COc1ccc(NC(=O)c2ccc[n+](CC(=O)Nc3ccc([N+](=O)[O-])cc3)c2)cc1
9%	–	NC(=O)c1ccc[n+](CCc2ccccc2)c1
34%	42.2	Cc1ccc(NC(=O)C[n+]2cccc(C(N)=O)c2)cc1
inactive	–	Cc1ccc(NC(=O)C[n+]2ccccc2)cc1
10%	–	COc1ccc(NC(=O)c2ccc[n+](CC(=O)Nc3ccc(Cl)cc3)c2)cc1
43%	13.3	COc1ccc(NC(=O)C[n+]2ccccc2)cc1

Continued, compound first:

Structure (SMILES)	inhibition [1]	IC50 [2] [µM]
NC(=O)c1ccc[n+](Cc2ccccc2)c1	10%	–
O=C(C[n+]1cccc(C(=O)Nc2ccccc2)c1)Nc1ccc([N+](=O)[O-])cc1	11%	–
C=CCNC(=O)c1ccc[n+](CC(=O)Nc2ccc([N+](=O)[O-])cc2)c1	20%	–
CSc1ccc(NC(=O)C[n+]2cccc(C(=O)Nc3ccccc3)c2)cc1	14%	–
Cc1ccc(NC(=O)C[n+]2cccc(C(=O)Nc3ccccc3)c2)cc1	59%	7.4
Cc1cccc(NC(=O)C[n+]2cccc(C(N)=O)c2)c1	34%	13.2
COc1ccc(NC(=O)C[n+]2cccc(C(=O)Nc3ccccc3)c2)cc1	4%	–
COc1ccc(NC(=O)C[n+]2cccc(C(=O)Nc3ccc(OC)cc3)c2)cc1	3%	–
Cc1ncc(C[n+]2csc(CCO)c2C)c(N)n1 [THIAMINE ION]	40%	12.5
CC(=O)NS(=O)(=O)c1ccc(NC(=O)C[n+]2ccccc2)cc1	46%	12.7
NS(=O)(=O)c1ccc(NC(=O)C[n+]2cccc(C(=O)Nc3ccccc3)c2)cc1	47%	26.6
O=C(C[n+]1ccccc1)Nc1ccc([N+](=O)[O-])cc1	34%	14.9
C=CCNC(=O)c1ccc[n+](CC(=O)Nc2ccc(OC)cc2)c1	32%	48.5
NC(=O)c1ccc[n+](CC(=O)NCCc2ccccc2)c1	46%	16.4
O=C(C[n+]1ccccc1)NCc1ccccc1	36%	49.6
CC(=O)NS(=O)(=O)c1ccc(NC(=O)C[n+]2cccc(C(N)=O)c2)cc1	36%	12.7
NC(=O)c1ccc[n+](CC(=O)Nc2ccccc2)c1	37%	13.3
O=C(C[n+]1ccccc1)Nc1ccc(Cl)cc1	3%	–
COc1ccc(NC(=O)C[n+]2cccc(C(=O)Nc3ccc([N+](=O)[O-])cc3)c2)cc1	inactive	–

Structure (SMILES)	inhibition [1]	IC50 [2] [µM]
N=C(N)NS(=O)(=O)c1ccc(NC(=O)C[n+]2cccc(C(N)=O)c2)cc1	29%	–
NC(=O)c1ccc[n+](CC(=O)Nc2ccc([N+](=O)[O-])cc2)c1	62%	7.6
O=C(C[n+]1cccc(C(=O)Nc2ccc(Cl)cc2)c1)Nc1ccc(Cl)cc1	inactive	–
Cc1ccc(NC(=O)C[n+]2cccc(C(=O)Nc3ccc([N+](=O)[O-])cc3)c2)cc1	21%	–
Cc1cccc(NC(=O)c2ccc[n+](CC(=O)Nc3ccc(Cl)cc3)c2)c1	24%	–
CSc1ccc(NC(=O)c2ccc[n+](CC(=O)Nc3ccc(Cl)cc3)c2)cc1	19%	–
COc1ccc(NC(=O)c2ccc[n+](CC(=O)Nc3ccc(C)cc3)c2)cc1	20%	–
N=C(N)NS(=O)(=O)c1ccc(NC(=O)C[n+]2ccccc2)cc1	20%	–
CCOC(=O)C[n+]1cccc(C(N)=O)c1	13%	–
O=C(C[n+]1ccccc1)Nc1ccccc1	3%	–
COc1ccc(NC(=O)C[n+]2cccc(C(=O)Nc3ccc(SC)cc3)c2)cc1	29%	–
O=C(C[n+]1cccc(C(=O)Nc2ccccc2)c1)Nc1ccc(Cl)cc1	17%	–
NS(=O)(=O)c1ccc(NC(=O)C[n+]2ccccc2)cc1	7%	–
NC(=O)c1ccc[n+](CC(=O)NCc2ccccc2)c1	20%	–
NC(=O)c1ccc[n+](CC(=O)Nc2ccc(Cl)cc2)c1	24%	–
NC(=O)c1ccc[n+](CC(=O)Nc2ccc(S(N)(=O)=O)cc2)c1	32%	12
C=CCNC(=O)c1ccc[n+](CC(=O)Nc2ccc(Cl)cc2)c1	1.6%	–
CSc1ccc(NC(=O)c2ccc[n+](CC(=O)Nc3ccc(C)cc3)c2)cc1	18%	–
CSc1ccc(NC(=O)C[n+]2cccc(C(=O)Nc3ccc(Cl)cc3)c2)cc1	24%	–
